Test [1] has as its system AGS (ATCC-CRL-1739) cells. In words: Cell viability assay, G12D (AGS). To be noted: KRAS cell viability, 72 hrs, Cell Counting Kit-8. The class given is cell-based, human. The protocol: (§1) The purpose of this cellular assay was to determine the effects of test compounds on the proliferation of human cancer cell lines NCI-H358 (ATCC-CRL5807) cells, AGS (ATCC-CRL-1739) cells, SW620 (ATCC-CCL-227) over a 3-day treatment period by quantifying the amount of NADPH present at endpoint using Cell Counting Kit-8.
(§2) Cells were seeded at 5,000 cells/well (NCI-H358), 2,000 cells/well (AGS) 2,000 cells/well (SW620) in 96-well assay plates (Corning-3699) and incubated overnight. On the day of the assay, diluted compounds were then added in a final concentration of 0.5% DMSO. After 72 hrs incubation, a tenth of the volume of cell counting kit 8 (Dnjindo-CK04) was added into each well. Read the signal (OD450 minus OD650) using EnVision after 2 hrs incubation. IC50 was determined by fitting a 4-parameter sigmoidal concentration response model.
(Formazan colour is commonly taken as a measure of viable cells.)

For test [2], the system named is phosphorylation of ERK, KRAS G12C in NCJ-H358 cells. In words: pERK inhibition assay, KRAS G12C. In kind it is cell-based, human. The settings on record: 4 hours. The gist of the method: (§3)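 In-cell ELISA of phospho-ERK (HRP/TMB, OD450) after formaldehyde fixation and methanol permeabilization; IC50 by 4-parameter sigmoidal fit. Compound incubation 4 h, 0.5% DMSO final, on overnight-attached NCJ-H358, AGS or SW620 cells seeded at 30,000, 20,000 and 30,000 per well.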

Test [3] addresses KRAS G12V binding to BRAF (Homo sapiens (Human), UniProt P01116+P62937, G12V). The experiment in a line: KRAS-BRAF with CYPA (500 nM) interaction assay (TR-FRET), G12V. In kind it is biochemical. The method in brief:
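A TR-FRET assay measured how compound, in the presence of CYPA, disrupts binding of GMPPNP-loaded 6His-KRAS G12V to BRAF. The buffer contained 25 mM HEPES PH=7.4, 0.002% Tween20, 0.1% BSA, 100 mM NaCl, 5 mM MgCl2 and 10 μM GMPPNP. Compounds ran as a 16-point 3-fold dilution series from 10 μM for 3 hours.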

The next test deals with KRAS G12C-BRAF complex (Homo sapiens (Human), UniProt P01116+P62937, G12C). The experiment in a line: KRAS-BRAF with CYPA (500 nM) interaction assay (TR-FRET), G12C. The class given is biochemical. On the technique in general: In TR-FRET formats the signal depends on donor and acceptor labels being close together.
Test [4] has as its system NCI-H358 (ATCC-CRL5807) cells. The experiment in a line: Cell viability assay, G12C (NCI-H358). To be noted: KRAS cell viability, NCI-H358, 72 hrs, Cell Counting Kit-8. In kind it is cell-based, human. The protocol: as §1, §2
Test [5] deals with KRAS G12D binding to BRAF (Homo sapiens (Human), UniProt P01116+P62937, G12D). In words: KRAS-BRAF with CYPA (500 nM) interaction assay (TR-FRET), G12D. The class given is biochemical.
In test [6] the test system is phosphorylation of ERK, KRAS G12V in SW620. The experiment in a line: pERK inhibition assay, KRAS G12V. The class given is cell-based, human. The method in brief:
as §3

For the next test, the system named is SW620 (ATCC-CCL-227). The experiment in a line: Cell viability assay, G12V (SW620). In kind it is cell-based, human. To be noted: KRAS cell viability, SW620, 72 hrs, Cell Counting Kit-8. The protocol:
as §1, §2

[7] abbreviates: Homo sapiens, SW-620, SW620, 4 hours.

The record followed here is patent US20250206761A1, “HALOINDOLE MACROCYCLIC COMPOUNDS FOR THE TREATMENT OF CANCER” (Hoffmann-La Roche Inc., priority 2022, published 2025).

In general, IC50 refers to the concentration at which inhibition is half-maximal. A lower IC50 goes with greater potency in that assay.

Sequence of KRAS G12D binding to BRAF (P01116-2 other isoform, or with tags, fused parts or gaps G12D): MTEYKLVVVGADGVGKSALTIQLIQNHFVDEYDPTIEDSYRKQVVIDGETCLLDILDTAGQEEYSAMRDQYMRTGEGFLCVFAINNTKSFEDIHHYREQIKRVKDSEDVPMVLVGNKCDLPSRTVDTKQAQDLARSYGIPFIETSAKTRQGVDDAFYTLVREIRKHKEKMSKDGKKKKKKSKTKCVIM
Sequence of KRAS G12D binding to BRAF (P62937 whole entry): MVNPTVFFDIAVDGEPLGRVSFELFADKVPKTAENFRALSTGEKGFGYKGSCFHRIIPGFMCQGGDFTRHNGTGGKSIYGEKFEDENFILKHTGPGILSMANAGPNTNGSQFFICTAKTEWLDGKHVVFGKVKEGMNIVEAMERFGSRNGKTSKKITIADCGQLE
Sequence of KRAS G12C-BRAF complex (P01116-2 other isoform, or with tags, fused parts or gaps G12C): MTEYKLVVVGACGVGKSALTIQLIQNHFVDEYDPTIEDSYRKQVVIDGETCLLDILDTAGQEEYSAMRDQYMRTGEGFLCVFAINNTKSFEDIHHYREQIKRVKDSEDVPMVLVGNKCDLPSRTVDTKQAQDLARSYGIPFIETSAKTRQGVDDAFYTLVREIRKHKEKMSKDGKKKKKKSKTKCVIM
Sequence of KRAS G12C-BRAF complex (P62937 whole entry): as the sequence (P62937 whole entry) above
Sequence of KRAS G12V binding to BRAF (P01116-2 other isoform, or with tags, fused parts or gaps G12V): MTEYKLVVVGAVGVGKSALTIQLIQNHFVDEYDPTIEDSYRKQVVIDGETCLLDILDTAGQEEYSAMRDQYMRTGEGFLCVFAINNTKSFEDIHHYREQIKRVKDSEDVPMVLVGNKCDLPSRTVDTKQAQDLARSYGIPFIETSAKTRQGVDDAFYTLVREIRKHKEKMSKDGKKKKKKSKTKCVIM
Sequence of KRAS G12V binding to BRAF (P62937 whole entry): as the sequence (P62937 whole entry) above

Turning to `CO[C@@H](C)c1ncc(N2CCN(CC(F)(F)F)CC2)cc1-c1c2c3cc(c(F)cc3n1CC(F)(F)F)-c1csc(n1)C[C@H](NC(=O)[C@H](C(C)C)N1CCCC3(CCN(C(=O)[C@H](F)Cl)CC3)C1=O)C(=O)N1CCC[C@H](N1)C(=O)OCC(C)(C)C2` (atropisomer, axis not shown; (M)) [Example 42, (2S)-2-[9-[(2R)-2-chloro-2-fluoro-acetyl]-1-oxo-2,9-diazaspiro[5.5]undecan-2-yl]-N-[(7S,13S)-24-fluoro-(20M)-20-[2-[(1S)-1-methoxyethyl]-5-[4-(2,2,2-trifluoroethyl)piperazin-1-yl]-3-pyridyl]-17,17-dimethyl-8,14-dioxo-21-(2,2,2-trifluoroethyl)-15-oxa-4-thia-9,21,27,28-tetrazapentacyclo[17.5.2.1^2,5.1^9,13.0^22,26]octacosa-1(25),2,5(28),19,22(26),23-hexaen-7-yl]-3-methyl-butanamide], the IC50 in test [1] (Homo sapiens) was 0.044 µM; in test [2] (Homo sapiens) it was 0.003 µM; in test [3], 7.86 µM; on KRAS G12C-BRAF complex it was 0.073 µM; in test [4] (Homo sapiens), less than 0.001 µM; in test [5], 3.97 µM. In addition, the IC50 in test [6] (setting [7]) came to 0.024 µM; in the test with SW620 (ATCC-CCL-227) (Homo sapiens, SW-620) it was 0.082 µM.

Turning to `CO[C@@H](C)c1ncc(N2CCN(CC(F)(F)F)CC2)cc1-c1c2c3cc(c(F)cc3n1CC(F)(F)F)-c1csc(n1)C[C@H](NC(=O)[C@H](C(C)C)N(C)C(=O)C1(F)CCN(C(=O)[C@H](F)Cl)CC1)C(=O)N1CCC[C@H](N1)C(=O)OCC(C)(C)C2` (atropisomer, axis not shown; (M)) [Example 44, 1-[(2R)-2-chloro-2-fluoro-acetyl]-4-fluoro-N-[(1S)-1-[[(7S,13S)-24-fluoro-(20M)-20-[2-[(1S)-1-methoxyethyl]-5-[4-(2,2,2-trifluoroethyl)piperazin-1-yl]-3-pyridyl]-17,17-dimethyl-8,14-dioxo-21-(2,2,2-trifluoroethyl)-15-oxa-4-thia-9,21,27,28-tetrazapentacyclo[17.5.2.1^2,5.1^9,13.0^22,26]octacosa-1(25),2,5(28),19,22(26),23-hexaen-7-yl]carbamoyl]-2-methyl-propyl]-N-methyl-piperidine-4-carboxamide], the IC50 in test [1] (Homo sapiens) is 0.134 µM; in test [2] (Homo sapiens), 0.01 µM; in test [3], 0.607 µM; against KRAS G12C-BRAF complex it was 0.034 µM; in test [4] (Homo sapiens), less than 0.001 µM; in test [5], 1.34 µM. Also, the IC50 in test [6] (setting [7]) was 0.044 µM; with SW620 (ATCC-CCL-227) (Homo sapiens, SW-620) it was more than 5 µM.

Turning to `CO[C@@H](C)c1ncc(N2CCN(CC(F)(F)F)CC2)cc1-c1c2c3cc(c(F)cc3n1CC(F)(F)F)-c1csc(n1)C[C@H](NC(=O)[C@H](C(C)C)N1CC[C@]3(CCN(C(=O)[C@H](F)Cl)C3)C1=O)C(=O)N1CCC[C@H](N1)C(=O)OCC(C)(C)C2` (atropisomer, axis not shown; (M)) [Example 45, (2S)-2-[(5S)-7-[(2R)-2-chloro-2-fluoro-acetyl]-1-oxo-2,7-diazaspiro[4.4]nonan-2-yl]-N-[(7S,13S)-24-fluoro-(20M)-20-[2-[(1S)-1-methoxyethyl]-5-[4-(2,2,2-trifluoroethyl)piperazin-1-yl]-3-pyridyl]-17,17-dimethyl-8,14-dioxo-21-(2,2,2-trifluoroethyl)-15-oxa-4-thia-9,21,27,28-tetrazapentacyclo[17.5.2.1^2,5.1^9,13.0^22,26]octacosa-1(25),2,5(28),19,22(26),23-hexaen-7-yl]-3-methyl-butanamide], the IC50 in test [1] (Homo sapiens) was 0.135 µM; in test [2] (Homo sapiens), 0.007 µM; in test [3], 0.299 µM; at KRAS G12C-BRAF complex it was 0.01 µM; in test [4] (Homo sapiens), less than 0.001 µM; in test [5] it was 4.97 µM. Moreover, the IC50 in test [6] (setting [7]) came out at 0.02 µM; in the test on SW620 (ATCC-CCL-227) (Homo sapiens, SW-620) it was 0.121 µM.

For `CO[C@@H](C)c1ncc(N2CCN(CC(F)(F)F)CC2)cc1-c1c2c3cc(c(F)cc3n1CC(F)(F)F)-c1csc(n1)C[C@H](NC(=O)[C@H](C(C)C)N1CCC3(CCN(C(=O)[C@H](F)Cl)CC3)C1=O)C(=O)N1CCC[C@H](N1)C(=O)OCC(C)(C)C2` (atropisomer, axis not shown; (M)) [Example 47, (2S)-2-[8-[(2R)-2-chloro-2-fluoro-acetyl]-1-oxo-2,8-diazaspiro[4.5]decan-2-yl]-N-[(7S,13S)-24-fluoro-(20M)-20-[2-[(1S)-1-methoxyethyl]-5-[4-(2,2,2-trifluoroethyl)piperazin-1-yl]-3-pyridyl]-17,17-dimethyl-8,14-dioxo-21-(2,2,2-trifluoroethyl)-15-oxa-4-thia-9,21,27,28-tetrazapentacyclo[17.5.2.1^2,5.1^9,13.0^22,26]octacosa-1(25),2,5(28),19,22(26),23-hexaen-7-yl]-3-methyl-butanamide], the IC50 in test [1] (Homo sapiens) was more than 5 µM; in test [2] (Homo sapiens), 0.026 µM; in test [3] it was more than 10 µM; against KRAS G12C-BRAF complex, 0.079 µM; in test [4] (Homo sapiens) it was 0.03 µM; in test [5] it was more than 10 µM. In addition, the IC50 in test [6] (setting [7]) is 0.176 µM; in the test with SW620 (ATCC-CCL-227) (Homo sapiens, SW-620) it was more than 5 µM.

With `CCn1c(-c2cc(N3CCN(CC(F)(F)F)CC3)cnc2[C@H](C)OC)c2c3cc(c(F)cc31)-c1csc(n1)C[C@H](NC(=O)[C@H](C(C)C)N1CC[C@]3(CCN(C(=O)[C@H](F)Cl)C3)C1=O)C(=O)N1CCC[C@H](N1)C(=O)OCC(C)(C)C2` [Example 38, (2S)-2-[(5S)-7-[(2R)-2-chloro-2-fluoro-acetyl]-1-oxo-2,7-diazaspiro[4.4]nonan-2-yl]-N-[(7S,13S)-21-ethyl-24-fluoro-(20M)-20-[2-[(1S)-1-methoxyethyl]-5-[4-(2,2,2-trifluoroethyl)piperazin-1-yl]-3-pyridyl]-17,17-dimethyl-8,14-dioxo-15-oxa-4-thia-9,21,27,28-tetrazapentacyclo[17.5.2.1^2,5.1^9,13.0^22,26]octacosa-1(25),2,5(28),19,22(26),23-hexaen-7-yl]-3-methyl-butanamide], the IC50 is 0.223 µM in test [1]; 0.001 µM in test [2]; 0.91 µM in test [3]; 0.032 µM against KRAS G12C-BRAF complex; less than 0.001 µM in test [4]; 3.3 µM in test [5]. The IC50 in test [6] (SW620, 4 hours) was 0.045 µM; with SW620 (ATCC-CCL-227), 0.103 µM.
